The record followed here is patent US12195741B2, “Creation of herbicide resistant gene and use thereof” (INSTITUTE OF GENETICS AND DEVELOPMENTAL BIOLOGY, CHINESE …, priority 2017, dated 2025).

Experiment [1] has as its system wild type rice tissue culture seedlings. Nature of the experiment: Establishing resistance screening conditions: herbicide concentration inhibiting growth of wild type rice seedlings. The format is in vivo. Particulars: minimum herbicide concentration inhibiting plant growth, 1/2 MS medium, after 7 days. How it is done:
(§1) Herbicides listed in Table 5 were selected, and ½ MS medium containing different concentrations of herbicides was prepared for screening wild type rice and wheat tissue culture seedlings. After 7 days, the minimum herbicide concentrations inhibiting plant growth were selected for subsequent screen of transformed plants.

Experiment [2] has as its system wild type wheat tissue culture seedlings. Nature of the experiment: Establishing resistance screening conditions: herbicide concentration inhibiting growth of wild type wheat seedlings. Particulars: minimum herbicide concentration inhibiting plant growth, 1/2 MS medium, after 7 days. It is filed as in vivo. Here is the method:
as §1

SMILES strings stand for the structures.

Consider `COC(=O)[C@@H](C)Oc1ccc(Oc2ncc(C(F)(F)F)cc2Cl)cc1` [Haloxyfop-R-methyl], for which the “Selection concentration for rice (PPM)” value in experiment [1] is 0.036 PPM. Moreover, the “Selection concentration for wheat (PPM)” value in experiment [2] worked out at 0.036 PPM. Turning to `CCCCOC(=O)[C@@H](C)Oc1ccc(Oc2ccc(C#N)cc2F)cc1` [cyhalofop-butyl], the “Selection concentration for rice (PPM)” value in experiment [1] worked out at 5.3 PPM.

On to `COc1cc(OC)nc(NC(=O)NS(=O)(=O)c2ncccc2C(=O)N(C)C)n1` [Nicosulfuron], for which the “Selection concentration for rice (PPM)” value in experiment [1] worked out at 0.012 PPM. The “Selection concentration for wheat (PPM)” value in experiment [2] turned out to be 0.13 PPM. Take `CCOC(=O)[C@@H](C)Oc1ccc(Oc2nc3ccc(Cl)cc3o2)cc1` [fenoxaprop-P-ethyl]: the “Selection concentration for rice (PPM)” value in experiment [1] is reported as 4.5 PPM. For `CCC/C(=N\OCC)C1=C(O)CC(CC(C)SCC)CC1=O` (centres unmarked) [sethoxydim], in experiment [1], the “Selection concentration for rice (PPM)” value was found to be 0.33 PPM. In addition, in experiment [2], the “Selection concentration for wheat (PPM)” value is 0.33 PPM.
